The test system of one assay is male ob/ob mice. Put plainly: ob/ob hypoglycemia test. Format: in vivo. Conditions: oral gavage once a day for three days, blood glucose lowering, calculated on day 3. The protocol:
The antidiabetic activity is indicated in vivo e.g. in the ob/ob hypoglycemia test in male ob/ob mice, given 1 to 200 mg/kg of drug. The mice, approximately 2 to 3 months of age, weighing about 30 g, are kept in a room at a controlled ambient temperature of 22° C and a 12/12 hour light/dark cycle for at least seven days before the screen and then during testing. In the ob/ob screen, Purina rodent chow and water are available ad libitum. For each screen, mice are matched and placed in treatment groups (six mice per group) on the basis of initial blood glucose levels the day prior to screening (day 0). Animals are dosed once a day for three days with either vehicle (carboxymethylcellulose 0.5 %, with Tween-80 0.2 %) or test compound in vehicle. The animals receive 0.1 ml/10 g body weight administered orally by gavage. On day 1, blood glucose levels are sampled from the tip of the tail at 2 and 4 hours post-dose. On day 3, blood glucose levels are sampled at 2, 4 and 8 hours post-dose. Blood glucose levels are measured by the glucose oxidase method (YSI Model 27, Yellow Springs, Ohio). […] A systematic, quantitative procedure for assessing the behavioral and physiological state of the mouse, in Psychopharmacologica 12 (1968) 222-257.
Efficacy for glucose lowering is determined by comparing glucose levels of control animals to those of treated animals. […]

Assay [1] deals with rat muscle cell line (L6 myocytes). The experiment in a line: L6 myocyte screen (glucose utilization). To be noted: differentiated L6 myocytes, 20 hours treatment, DMEM with 15 mM glucose, concentration producing 50 % of maximum response versus control, read-out: EC50 in the L6 myocyte test. It is filed as cell-based. The protocol: This is indicated in standard tests, e.g. in vitro by the L6 myocyte screen in a rat muscle cell line:
The L6 myocyte screen determines the direct effects of 1 to 300 µM concentrations of the agents on glucose utilization in the rat muscle cell line. Rat L6 myoblasts (American Type Culture Collection) are maintained in Dulbecco's modified Eagle's medium (DMEM, Gibco) containing 5 mM glucose and 10 % calf serum supplement. The L6 myoblasts are plated in 96-well microtiter plates at a density of 3000 cells/well. Differentiated myocytes are used in experiments on the 11th or 13th day after plating. All test agents are dissolved in 1 % dimethylsulfoxide (DMSO) in serum-free testing media. The DMSO has no effect on glucose utilization. Each experiment includes the following internal controls: water, glucose standard (300 mg/dl), media blank, media control, ciglitazone standard (30 µM) and an insulin dose-response curve (0.03 - 1 µM). All compounds are tested in quadruplicate in each experiment at concentrations of 1, 3, 10, 30,100 and 300 µM. The L6 cells are treated with test compound and DMEM containing 15 mM glucose for 20 hours. Glucose utilization is assessed by measurement of glucose remaining in the media using a glucose oxidase assay (Ciba-Corning #S1004B). The EC50 is the concentration of the test agent estimated to produce 50 % of the maximum response versus control.

In the case of `O=C1CC[C@]2(c3ccc(Cl)c(Cl)c3)O[C@H](COc3ccc(Cl)cc3)CN12` (racemic) [Example 3, (±)-trans-2-[(4-Chlorophenoxy)methyl]-7a-(3,4-dichlorophenyl)-2,3,7,7a-tetrahydropyrrolo[2,1-b]oxazol-5(6H)-one], the “EC50 in the ob/ob hypoglycemia test” value in the assay with male ob/ob mice is listed as “about 62 mg/kg”. For the same compound, in assay [1], the EC50 is ~14 µM. On to `O=C1CC[C@]2(c3ccc(Cl)c(Cl)c3)O[C@H](COc3ccc(Cl)cc3)CN12` [Example 1, (-)-trans-2S-[(4-Chlorophenoxy)methyl]-7A-(3,4-dichlorophenyl)-2,3,7,7a-tetrahydropyrrolo[2.1-b]oxazol-5(6H)-one], for which the EC50 in assay [1] is ~10 µM.

The values are drawn from EP0702015B1, “Bicyclic oxazole and thiazole substituted ethers” (Novartis AG, priority 1994, dated 1996).
